How the values were obtained:
[1] = molecular target: T1, human L-type amino acid transporter 2 (LAT2; S2-hLAT2 cells) (Homo sapiens, UniProt Q9UHI5); test: Inhibition of L-[14C]leucine uptake in S2-LAT2 cells; type: cell-based; conditions: inhibition of 1.0 μM L-[14C]leucine uptake, 1.0 min, 37° C., NI = no inhibition at 100 μM
T1 construct: expressed in transfected cells; host or cells: S2 cells (S2-hLAT2 / S2-LAT2); mammalian cell line described in Morimoto et al., J Pharmacol Sci 2008, 108, 505-516
T1 sequence (Q9UHI5 1-535): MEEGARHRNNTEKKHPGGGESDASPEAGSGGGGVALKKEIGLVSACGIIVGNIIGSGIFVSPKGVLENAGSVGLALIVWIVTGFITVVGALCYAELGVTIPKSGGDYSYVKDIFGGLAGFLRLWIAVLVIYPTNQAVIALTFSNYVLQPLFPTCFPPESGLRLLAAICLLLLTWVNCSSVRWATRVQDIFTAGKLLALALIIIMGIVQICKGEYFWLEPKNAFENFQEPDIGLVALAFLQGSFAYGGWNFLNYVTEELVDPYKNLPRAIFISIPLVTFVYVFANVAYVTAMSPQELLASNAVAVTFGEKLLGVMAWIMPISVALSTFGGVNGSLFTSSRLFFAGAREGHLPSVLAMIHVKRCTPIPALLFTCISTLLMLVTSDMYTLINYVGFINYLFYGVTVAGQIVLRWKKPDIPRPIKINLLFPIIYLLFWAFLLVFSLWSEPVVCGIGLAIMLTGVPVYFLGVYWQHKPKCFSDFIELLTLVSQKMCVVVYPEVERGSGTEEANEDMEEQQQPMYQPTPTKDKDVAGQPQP
T1 sequence (P08195 1-529 partner): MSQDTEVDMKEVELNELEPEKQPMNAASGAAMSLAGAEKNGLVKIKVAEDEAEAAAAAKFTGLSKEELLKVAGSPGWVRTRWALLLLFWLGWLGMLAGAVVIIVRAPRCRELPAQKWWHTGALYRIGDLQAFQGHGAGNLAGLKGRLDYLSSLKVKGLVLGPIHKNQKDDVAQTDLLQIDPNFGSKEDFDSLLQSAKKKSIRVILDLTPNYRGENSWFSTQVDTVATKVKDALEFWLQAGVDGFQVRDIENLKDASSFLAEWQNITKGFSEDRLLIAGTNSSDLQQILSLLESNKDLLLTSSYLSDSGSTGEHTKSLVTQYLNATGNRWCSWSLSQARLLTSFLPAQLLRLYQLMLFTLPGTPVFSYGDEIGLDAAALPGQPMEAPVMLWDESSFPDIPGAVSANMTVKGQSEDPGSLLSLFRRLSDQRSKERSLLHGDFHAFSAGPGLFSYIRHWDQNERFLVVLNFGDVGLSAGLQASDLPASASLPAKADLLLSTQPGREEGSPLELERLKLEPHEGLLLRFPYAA
Method: (§1) The establishment and characterization of mammalian cell lines expressing human L-type amino acid transporterss (i.e. S2-hLAT1 and S2-hLAT2) has been previously described (Morimoto et al., Journal of Pharmacological Sciences, 2008, 108, 505-516).
(§2) General test procedures are as follows: All test compounds were dissolved in dimethyl sulfoxide (DMSO) to prepare stock solutions at the concentrations of 0.05, 0.5, 5.0 and 50 mM; next, these stock solutions were used and diluted with uptake solution to make final test concentrations of 0.10, 1.00, 10.0 and 100 μM, respectively. Therefore, all compounds used for uptake experiment were in uptake solution containing 0.2% DMSO; experiments are performed in triplicate for each concentration. For control uptake, only DMSO was added into the uptake solution to a final concentration of 0.2%.
(§3) S2-LAT1 and S2-LAT2 cells were seeded (1.3×10^5 cells/well) into 24-well plates and cultured at 33° C. (5% CO2) for 2-3 days until confluent (90%-100% confluence). Uptake experiments were performed at 37° C. The culture medium was removed and washed 3 times with uptake solution (37° C.; Hank's Na^+ free buffer consisting of 125 mM choline chloride, 4.8 mM KCl, 1.3 mM CaCl2, 1.2 mM MgCl2, 25.0 mM HEPES, and 5.0 mM Tris, pH 7.4, supplemented with D-glucose (5.6 mM). The cells were equilibrated in uptake solution (300 μL; 37° C.) for 12 min. The equilibrated solution was removed and uptake solution containing radio-labeled compound (1.0 μM L-[^14C] Leucine) with or without test compound (300 μL) was added to the cells (1.0 min). The test solution was removed and the cells washed 3 times with ice-cold uptake solution. The cells are then solubilized with 0.1N NaOH (0.5 mL) and transferred to scintillation vials. Liquid scintillation fluid (3.0 mL; aquasol-2) was added, mixed and substrate accumulation was measured by counting radioactivity via liquid scintillation counting (LSC; LSC6100, Aloka, Tokyo). The uptake value and % of inhibition were calculated to afford IC50 values.

[2] = molecular target: T2, human L-type amino acid transporter 1 (LAT1; S2-hLAT1 cells) (Homo sapiens, UniProt Q01650); test: Inhibition of L-[14C]leucine uptake in S2-LAT1 cells; type: cell-based; conditions: inhibition of 1.0 μM L-[14C]leucine uptake, 1.0 min, 37° C., NI = no inhibition at 100 μM
T2 construct: expressed in transfected cells; host or cells: S2 cells (S2-hLAT1 / S2-LAT1); mammalian cell line described in Morimoto et al., J Pharmacol Sci 2008, 108, 505-516
T2 sequence (Q01650 whole entry, one chain of several): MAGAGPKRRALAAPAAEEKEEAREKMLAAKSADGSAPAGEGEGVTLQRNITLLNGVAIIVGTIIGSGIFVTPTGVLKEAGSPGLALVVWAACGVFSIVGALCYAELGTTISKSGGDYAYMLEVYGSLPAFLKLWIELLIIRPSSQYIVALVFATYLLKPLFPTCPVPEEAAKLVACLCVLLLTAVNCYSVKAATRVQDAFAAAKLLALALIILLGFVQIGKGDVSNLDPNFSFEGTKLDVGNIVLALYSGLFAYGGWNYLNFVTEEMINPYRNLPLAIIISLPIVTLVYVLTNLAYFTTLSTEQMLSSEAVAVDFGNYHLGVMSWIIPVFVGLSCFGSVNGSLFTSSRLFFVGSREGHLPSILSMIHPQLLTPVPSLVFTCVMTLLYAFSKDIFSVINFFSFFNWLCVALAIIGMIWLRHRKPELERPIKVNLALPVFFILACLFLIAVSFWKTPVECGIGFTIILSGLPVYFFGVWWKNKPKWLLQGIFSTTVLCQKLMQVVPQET
Method: as §1, §2, §3

COc1ccccc1COc1c(Br)cc(C[C@H](N)C(=O)O)cc1Br [compound 55]
IC50 [1]: > 100 µM
IC50 [2]: 10.2 µM

COc1cccc(COc2c(Cl)cc(CC(C)(N)C(=O)O)cc2Cl)c1 (racemic) [compound 147]
IC50 [1]: > 100 µM
IC50 [2]: > 100 µM

N[C@@H](Cc1cc(Cl)c(OCc2ccc3c(c2)OCO3)c(Cl)c1)C(=O)O [compound 130]
IC50 [1]: 27.3 µM
IC50 [2]: 4.2 µM

CCOc1cc(COc2c(Cl)cc(C[C@H](N)C(=O)O)cc2Cl)cc(OCC)c1OCC [compound 139]
IC50 [1]: > 100 µM
IC50 [2]: 1.2 µM

COc1ccc(COc2c(I)cc(C[C@H](N)C(=O)O)cc2I)c(OC)c1OC [compound 43]
IC50 [1]: > 100 µM
IC50 [2]: 23.6 µM

CCOc1ccc(COc2c(I)cc(C[C@H](N)C(=O)O)cc2I)cc1OCC [compound 49]
IC50 [1]: > 100 µM
IC50 [2]: 5.5 µM

COc1ccc(COc2c(Cl)cc(C[C@H](N)C(=O)O)cc2Cl)c(OC)n1 [compound 135]
IC50 [1]: 32.5 µM
IC50 [2]: 2.4 µM

N[C@@H](Cc1cc(I)c(OCCc2ccc(OC(F)(F)F)cc2)c(I)c1)C(=O)O [compound 33]
IC50 [1]: > 100 µM
IC50 [2]: > 100 µM

COc1cccc(COc2c(Cl)cc(C[C@H](N)C(=O)O)cc2Cl)c1OC [compound 132]
IC50 [1]: > 100 µM
IC50 [2]: 28.2 µM

N[C@@H](Cc1cc(Br)c(OCCc2ccc(C(F)(F)F)cc2)c(Br)c1)C(=O)O [compound 58]
IC50 [1]: > 100 µM
IC50 [2]: 43.2 µM

COc1ccc(COc2c(I)cc(C[C@H](N)C(=O)O)cc2I)c(OC)c1 [compound 41]
IC50 [1]: > 100 µM
IC50 [2]: 5 µM

CCOc1ccc(COc2c(I)cc(C[C@H](N)C(=O)O)cc2I)c(OCC)c1 [compound 48]
IC50 [1]: > 100 µM
IC50 [2]: 17.2 µM

COc1ccc(COc2c(Cl)cc(C[C@H](N)C(=O)O)cc2Cl)c(OC)c1 [compound 133]
IC50 [1]: 5.5 µM
IC50 [2]: 0.8 µM

N[C@@H](Cc1cc(Br)c(OCCc2cccc(C(F)(F)F)c2)c(Br)c1)C(=O)O [compound 59]
IC50 [1]: > 100 µM
IC50 [2]: 31.8 µM

N[C@@H](Cc1cc(I)c(OCc2ccc3c(c2)OCO3)c(I)c1)C(=O)O [compound 50]
IC50 [1]: > 100 µM
IC50 [2]: 24.1 µM

COc1ccc(CCOc2c(Br)cc(C[C@H](N)C(=O)O)cc2Br)cc1 [compound 52]
IC50 [1]: > 100 µM
IC50 [2]: 6.8 µM

CC(N)(Cc1cc(Cl)c(OCc2ccc3c(c2)OCO3)c(Cl)c1)C(=O)O (racemic) [compound 144]
IC50 [1]: > 100 µM
IC50 [2]: > 100 µM

COc1ccc(COc2c(I)cc(C[C@H](N)C(=O)O)cc2I)c(C)c1C [compound 44]
IC50 [1]: > 100 µM
IC50 [2]: 7.7 µM

N[C@@H](Cc1cc(I)c(OCc2ccc([N+](=O)[O-])cc2)c(I)c1)C(=O)O [compound 37]
IC50 [1]: 8.2 µM
IC50 [2]: 11.5 µM

CC(N)(Cc1cc(Cl)c(OCc2ccc(C(F)(F)F)cc2)c(Cl)c1)C(=O)O (racemic) [compound 145]
IC50 [1]: > 100 µM

COc1ccc(COc2c(Cl)cc(C[C@H](N)C(=O)O)cc2Cl)c(C)c1C [compound 137]
IC50 [1]: > 100 µM
IC50 [2]: 3.5 µM

N[C@@H](Cc1cc(Br)c(OCCc2ccccc2C(F)(F)F)c(Br)c1)C(=O)O [compound 60]
IC50 [1]: > 100 µM
IC50 [2]: > 100 µM

CCOc1ccc(COc2c(Cl)cc(C[C@H](N)C(=O)O)cc2Cl)c(OCC)c1 [compound 140]
IC50 [1]: > 100 µM
IC50 [2]: 2.2 µM

CC(N)(Cc1cc(Cl)c(OCc2ccncc2)c(Cl)c1)C(=O)O (racemic) [compound 152]
IC50 [1]: > 100 µM
IC50 [2]: > 100 µM

COc1cccc(COc2c(Br)cc(C[C@H](N)C(=O)O)cc2Br)c1 [compound 56]
IC50 [1]: > 100 µM
IC50 [2]: 67.1 µM

COc1cc(OC)c(OC)cc1COc1c(Cl)cc(C[C@H](N)C(=O)O)cc1Cl [compound 138]
IC50 [1]: > 100 µM
IC50 [2]: 29.2 µM

COC(COc1c(I)cc(C[C@H](N)C(=O)O)cc1I)c1ccccc1 (stereo partly shown) [compound 35]
IC50 [1]: > 100 µM
IC50 [2]: 8.8 µM

COc1ccc(COc2c(Cl)cc(CC(C)(N)C(=O)O)cc2Cl)cc1OC (racemic) [compound 150]
IC50 [1]: > 100 µM
IC50 [2]: > 100 µM

COc1cc(Cl)ccc1COc1c(I)cc(C[C@H](N)C(=O)O)cc1I [compound 42]
IC50 [1]: > 100 µM
IC50 [2]: 17.7 µM

N[C@@H](Cc1cc(Br)c(OCc2ccccc2C(F)(F)F)c(Br)c1)C(=O)O [compound 61]
IC50 [1]: > 100 µM
IC50 [2]: > 100 µM

COc1cc(COc2c(Cl)cc(CC(C)(N)C(=O)O)cc2Cl)cc(OC)c1OC (racemic) [compound 151]
IC50 [1]: > 100 µM
IC50 [2]: > 100 µM

COc1ccc(COc2c(Cl)cc(C[C@H](N)C(=O)O)cc2Cl)cc1OC [compound 129]
IC50 [1]: > 100 µM
IC50 [2]: 17.8 µM

COc1cc(Cl)ccc1COc1c(Cl)cc(C[C@H](N)C(=O)O)cc1Cl [compound 134]
IC50 [1]: > 100 µM
IC50 [2]: 4.4 µM

COc1cccc(CCOc2c(Br)cc(C[C@H](N)C(=O)O)cc2Br)c1 [compound 53]
IC50 [1]: > 100 µM
IC50 [2]: 6.3 µM

COc1cc(COc2c(I)cc(C[C@H](N)C(=O)O)cc2I)cc(OC)c1OC [compound 45]
IC50 [1]: > 100 µM
IC50 [2]: 15 µM

COc1ccccc1COc1c(Cl)cc(CC(C)(N)C(=O)O)cc1Cl (racemic) [compound 148]
IC50 [1]: > 100 µM
IC50 [2]: > 100 µM

N[C@@H](Cc1cc(I)c(OCCc2ccc([N+](=O)[O-])cc2)c(I)c1)C(=O)O [compound 36]
IC50 [1]: > 100 µM
IC50 [2]: 28.2 µM

COc1cccc(COc2c(Cl)cc(CC(C)(N)C(=O)O)cc2Cl)c1OC (racemic) [compound 149]
IC50 [1]: > 100 µM
IC50 [2]: > 100 µM

N[C@@H](Cc1cc(I)c(OCc2ccc(Cl)cc2)c(I)c1)C(=O)O [compound 51]
IC50 [1]: 29.5 µM
IC50 [2]: 10.4 µM

N[C@@H](Cc1cc(Cl)c(OCCc2ccccc2)c(Cl)c1)C(=O)O [compound 122]
IC50 [1]: > 100 µM
IC50 [2]: 50.7 µM

N[C@@H](Cc1cc(I)c(OCC(=O)c2ccccc2)c(I)c1)C(=O)O [compound 34]
IC50 [1]: 47.9 µM
IC50 [2]: 11.9 µM

COc1ccc(COc2c(Cl)cc(C[C@H](N)C(=O)O)cc2Cl)cc1[N+](=O)[O-] [compound 131]
IC50 [1]: 126 µM
IC50 [2]: 8.4 µM

COc1ccc(COc2c(Br)cc(C[C@H](N)C(=O)O)cc2Br)cc1 [compound 57]
IC50 [1]: 86.5 µM
IC50 [2]: 16.4 µM

CCOc1ccc(COc2c(Cl)cc(C[C@H](N)C(=O)O)cc2Cl)cc1OCC [compound 141]
IC50 [1]: 44.9 µM
IC50 [2]: 2.9 µM

COc1ccc(COc2c(Cl)cc(CC(C)(N)C(=O)O)cc2Cl)cc1 (racemic) [compound 146]
IC50 [1]: 16.4 µM
IC50 [2]: 6.7 µM

COc1ccc(COc2c(Cl)cc(C[C@H](N)C(=O)O)cc2Cl)c(OC)c1OC [compound 136]
IC50 [1]: > 100 µM
IC50 [2]: 8.1 µM

From patent US20110150767A1, “ALPHA-SUBSTITUTED AND ALPHA-UNSUBSTITUTED AROMATIC AMINO ACID DERIVATIVES AND COMPOSITIONS THEREOF FOR USE TO TREAT, DIAGNOSE, OR MONITOR A MEDICAL CONDITION” (priority 2009, published 2011)
